Values joined by “and” are separate entries in the source; they are usually repeats but may differ in a detail not shown here. Identical values can stand only once. Toxic doses and inconclusive results are not listed.
Tested on: CD2F1 mice, L1210 leukemia ip, survival T/C
Test: NCI In Vivo Anticancer Drug Screen. Data for tumor model L1210 Leukemia (intraperitoneal) in CD2F1 (CDF1) mice
Conditions: higher = longer survival
Outline: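 In this screen, transplantable tumors were grown in mice given either the compound or its vehicle. Results were expressed as the treated measurement relative to the control measurement.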

[1] = endpoint: mean survival time, dose: 100.0 mg/kg/injection, schedule: Q04DX002 (ip), vehicle: saline with Tween-80
[2] = endpoint: mean survival time, dose: 100.0 mg/kg/injection, schedule: Q04DX003 (ip), vehicle: saline with Tween-80
[3] = endpoint: mean survival time, dose: 200.0 mg/kg/injection, schedule: Q04DX003 (ip), vehicle: saline with Tween-80
[4] = endpoint: mean survival time, dose: 400.0 mg/kg/injection, schedule: Q04DX003 (ip), vehicle: saline with Tween-80
[5] = endpoint: mean survival time, dose: 50.0 mg/kg/injection, schedule: Q01DX009 (ip), vehicle: saline with Tween-80
[6] = endpoint: mean survival time, dose: 100.0 mg/kg/injection, schedule: Q01DX001 (ip), vehicle: saline with Tween-80
[7] = endpoint: mean survival time, dose: 400.0 mg/kg/injection, schedule: Q01DX001 (ip), vehicle: saline with Tween-80

## COC1OC(COC(=O)c2ccc([N+](=O)[O-])cc2)C(SC#N)C1OC(=O)c1ccc([N+](=O)[O-])cc1 (stereo unspecified)
endpoint: mean survival time, dose: 50.0 mg/kg/injection, schedule: Q01DX001 (ip), vehicle: saline
  T/C: 101 % of control
endpoint: mean survival time, dose: 100.0 mg/kg/injection, schedule: Q01DX001 (ip), vehicle: saline
  T/C: 101 % of control
endpoint: mean survival time, dose: 200.0 mg/kg/injection, schedule: Q01DX001 (ip), vehicle: saline
  T/C: 91 % of control
endpoint: mean survival time, dose: 400.0 mg/kg/injection, schedule: Q01DX001 (ip), vehicle: saline
  T/C: 101 % of control

## C[P+](CP(=O)(c1ccccc1)c1ccccc1)(c1ccccc1)c1ccccc1
endpoint: mean survival time, dose: 25.0 mg/kg/injection, schedule: Q04DX002 (ip), vehicle: saline with Tween-80
  T/C: 107 % of control
endpoint: mean survival time, dose: 50.0 mg/kg/injection, schedule: Q04DX002 (ip), vehicle: saline with Tween-80
  T/C: 92 % of control
[1]
  T/C: 96 % of control

## O=C1NC(c2ccccc2)C2/C=C\CCCCC12 (stereo unspecified)
endpoint: mean survival time, dose: 75.0 mg/kg/injection, schedule: Q04DX002 (ip), vehicle: saline with Tween-80
  T/C: 93 % of control
endpoint: mean survival time, dose: 150.0 mg/kg/injection, schedule: Q04DX002 (ip), vehicle: saline with Tween-80
  T/C: 96 % of control
endpoint: mean survival time, dose: 300.0 mg/kg/injection, schedule: Q04DX002 (ip), vehicle: saline with Tween-80
  T/C: 93 % of control

## C[Si](C)(CN)CN.O=C([O-])C1(C(=O)[O-])CCC1.[Pt+4]
endpoint: median survival time, dose: 2.5 mg/kg/injection, schedule: Q04DX003 (ip), vehicle: water
  T/C: 110 % of control
endpoint: median survival time, dose: 5.0 mg/kg/injection, schedule: Q04DX003 (ip), vehicle: water
  T/C: 107 % of control
endpoint: median survival time, dose: 10.0 mg/kg/injection, schedule: Q04DX003 (ip), vehicle: water
  T/C: 122 % of control
endpoint: median survival time, dose: 20.0 mg/kg/injection, schedule: Q04DX003 (ip), vehicle: water
  T/C: 151 % of control
endpoint: median survival time, dose: 25.0 mg/kg/injection, schedule: Q04DX003 (ip), vehicle: water
  T/C: 151 % of control
endpoint: median survival time, dose: 40.0 mg/kg/injection, schedule: Q04DX003 (ip), vehicle: water
  T/C: 164 % of control and 177 % of control
endpoint: median survival time, dose: 50.0 mg/kg/injection, schedule: Q04DX003 (ip), vehicle: water
  T/C: 175 % of control
endpoint: median survival time, dose: 60.0 mg/kg/injection, schedule: Q04DX003 (ip), vehicle: water
  T/C: 181 % of control
endpoint: median survival time, dose: 80.0 mg/kg/injection, schedule: Q04DX003 (ip), vehicle: water
  T/C: 244 % of control
endpoint: median survival time, dose: 100.0 mg/kg/injection, schedule: Q04DX003 (ip), vehicle: water
  T/C: 175 % of control

## CC1CC1C(N)=O (stereo unspecified)
endpoint: mean survival time, dose: 50.0 mg/kg/injection, schedule: Q04DX002 (ip), vehicle: saline
  T/C: 103 % of control
endpoint: mean survival time, dose: 100.0 mg/kg/injection, schedule: Q04DX002 (ip), vehicle: saline
  T/C: 98 % of control and 102 % of control
endpoint: mean survival time, dose: 200.0 mg/kg/injection, schedule: Q04DX002 (ip), vehicle: saline
  T/C: 98 % of control and 103 % of control
endpoint: mean survival time, dose: 400.0 mg/kg/injection, schedule: Q04DX002 (ip), vehicle: saline
  T/C: 101 % of control and 104 % of control
endpoint: mean survival time, dose: 600.0 mg/kg/injection, schedule: Q04DX002 (ip), vehicle: saline
  T/C: 98 % of control
endpoint: mean survival time, dose: 800.0 mg/kg/injection, schedule: Q04DX002 (ip), vehicle: saline
  T/C: 100 % of control

## CCOC(=O)c1ncn(C2OC(COC(=O)c3ccccc3)C(OC(=O)c3ccccc3)C2OC(=O)c2ccccc2)c1C (stereo unspecified)
endpoint: median survival time, dose: 48.9 mg/kg/injection, schedule: Q01DX005 (ip), vehicle: saline with Tween-80
  T/C: 98 % of control
endpoint: median survival time, dose: 97.8 mg/kg/injection, schedule: Q01DX005 (ip), vehicle: saline with Tween-80
  T/C: 100 % of control
endpoint: median survival time, dose: 195.6 mg/kg/injection, schedule: Q01DX005 (ip), vehicle: saline with Tween-80
  T/C: 90 % of control

## CCN(CC)Cc1cn(C2CC(O)C(CO)O2)c(=O)[nH]c1=O (stereo unspecified)
endpoint: mean survival time, dose: 12.5 mg/kg/injection, schedule: Q01DX005 (ip), vehicle: water
  T/C: 100 % of control
endpoint: mean survival time, dose: 25.0 mg/kg/injection, schedule: Q01DX005 (ip), vehicle: water
  T/C: 104 % of control
endpoint: mean survival time, dose: 50.0 mg/kg/injection, schedule: Q01DX005 (ip), vehicle: water
  T/C: 91 % of control
endpoint: mean survival time, dose: 100.0 mg/kg/injection, schedule: Q01DX005 (ip), vehicle: water
  T/C: 100 % of control
endpoint: mean survival time, dose: 200.0 mg/kg/injection, schedule: Q01DX005 (ip), vehicle: water
  T/C: 98 % of control

## NC(=O)C(F)(F)F
endpoint: mean survival time, dose: 100.0 mg/kg/injection, schedule: Q01DX009 (ip), vehicle: saline
  T/C: 98 % of control
endpoint: mean survival time, dose: 200.0 mg/kg/injection, schedule: Q01DX009 (ip), vehicle: saline
  T/C: 98 % of control
endpoint: mean survival time, dose: 400.0 mg/kg/injection, schedule: Q01DX009 (ip), vehicle: saline
  T/C: 100 % of control

## O[Si](c1ccccc1)(c1ccccc1)c1ccccc1
[2]
  T/C: 102 % of control
[3]
  T/C: 97 % of control
[4]
  T/C: 92 % of control

## CCN(CC)C(=O)Nc1cc(Cl)ccc1Cl
[1]
  T/C: 97 % of control
endpoint: mean survival time, dose: 200.0 mg/kg/injection, schedule: Q04DX002 (ip), vehicle: saline with Tween-80
  T/C: 101 % of control

## Cc1cccnc1F
endpoint: mean survival time, dose: 12.5 mg/kg/injection, schedule: Q01DX009 (ip), vehicle: saline with Tween-80
  T/C: 95 % of control
endpoint: mean survival time, dose: 25.0 mg/kg/injection, schedule: Q01DX009 (ip), vehicle: saline with Tween-80
  T/C: 97 % of control
[5]
  T/C: 100 % of control
[2]
  T/C: 93 % of control
[3]
  T/C: 96 % of control
[4]
  T/C: 96 % of control

## COc1cc(/C=N/N2CCCCC2)cc(OC)c1OC
[2]
  T/C: 104 % of control
[3]
  T/C: 95 % of control
[4]
  T/C: 111 % of control

## CC(C)(C)OC1C2C=CC1C=C2 (stereo unspecified)
[6]
  T/C: 100 % of control
endpoint: mean survival time, dose: 200.0 mg/kg/injection, schedule: Q01DX001 (ip), vehicle: saline with Tween-80
  T/C: 91 % of control
[7]
  T/C: 88 % of control

## Cn1c(=O)c2c(ncn2CC(=O)NNC(=S)Nc2ccccc2)n(C)c1=O
endpoint: mean survival time, dose: 12.5 mg/kg/injection, schedule: Q01DX005 (ip), vehicle: distilled water + Tween-80
  T/C: 121 % of control
endpoint: mean survival time, dose: 25.0 mg/kg/injection, schedule: Q01DX005 (ip), vehicle: distilled water + Tween-80
  T/C: 121 % of control
endpoint: mean survival time, dose: 50.0 mg/kg/injection, schedule: Q01DX005 (ip), vehicle: distilled water + Tween-80
  T/C: 93 % of control
endpoint: mean survival time, dose: 100.0 mg/kg/injection, schedule: Q01DX005 (ip), vehicle: distilled water + Tween-80
  T/C: 106 % of control
endpoint: mean survival time, dose: 200.0 mg/kg/injection, schedule: Q01DX005 (ip), vehicle: distilled water + Tween-80
  T/C: 93 % of control

## CN(C)c1ccc(/C=N/NC(=O)CNC(=O)Nc2cccc(C(F)(F)F)c2)cc1
[5]
  T/C: 96 % of control
endpoint: mean survival time, dose: 100.0 mg/kg/injection, schedule: Q01DX009 (ip), vehicle: saline with Tween-80
  T/C: 92 % of control
endpoint: mean survival time, dose: 200.0 mg/kg/injection, schedule: Q01DX009 (ip), vehicle: saline with Tween-80
  T/C: 88 % of control

## CC1=C(C)C(=O)O[C@@H]([C@](C)(O)[C@]2(O)CC[C@@]3(O)[C@@H]4C[C@H]5O[C@]56[C@@H](O)C=CC(=O)[C@]6(C)[C@H]4CC[C@]23C)C1
endpoint: mean survival time, dose: 1.0 mg/kg/injection, schedule: Q01DX009 (ip), vehicle: saline
  T/C: 113 % of control
endpoint: mean survival time, dose: 2.0 mg/kg/injection, schedule: Q01DX009 (ip), vehicle: saline
  T/C: 104 % of control
endpoint: mean survival time, dose: 2.0 mg/kg/injection, schedule: Q01DX009 (ip), vehicle: suspension in saline
  T/C: 105 % of control
endpoint: mean survival time, dose: 4.0 mg/kg/injection, schedule: Q01DX009 (ip), vehicle: saline
  T/C: 106 % of control
endpoint: mean survival time, dose: 4.0 mg/kg/injection, schedule: Q01DX009 (ip), vehicle: suspension in saline
  T/C: 108 % of control
endpoint: mean survival time, dose: 8.0 mg/kg/injection, schedule: Q01DX009 (ip), vehicle: saline
  T/C: 111 % of control
endpoint: mean survival time, dose: 8.0 mg/kg/injection, schedule: Q01DX009 (ip), vehicle: suspension in saline
  T/C: 114 % of control
endpoint: mean survival time, dose: 16.0 mg/kg/injection, schedule: Q01DX009 (ip), vehicle: saline
  T/C: 103 % of control
endpoint: mean survival time, dose: 16.0 mg/kg/injection, schedule: Q01DX009 (ip), vehicle: suspension in saline
  T/C: 108 % of control
endpoint: mean survival time, dose: 32.0 mg/kg/injection, schedule: Q01DX009 (ip), vehicle: saline
  T/C: 87 % of control
endpoint: mean survival time, dose: 32.0 mg/kg/injection, schedule: Q01DX009 (ip), vehicle: suspension in saline
  T/C: 96 % of control

## Nc1ncnc(N)c1NC(=O)c1ccc(-c2ccccc2)cc1
endpoint: mean survival time, dose: 25.0 mg/kg/injection, schedule: Q04DX003 (ip), vehicle: saline with Tween-80
  T/C: 92 % of control
endpoint: mean survival time, dose: 50.0 mg/kg/injection, schedule: Q04DX003 (ip), vehicle: saline with Tween-80
  T/C: 94 % of control
[2]
  T/C: 103 % of control

## COc1ccc2c(c1OC(C)=O)-c1cc(OC(C)=O)cc3c1C(C2)N(C(=O)CCl)CC3 (stereo unspecified)
endpoint: mean survival time, dose: 25.0 mg/kg/injection, schedule: Q04DX003 (ip), vehicle: DMSO
  T/C: 101 % of control
endpoint: mean survival time, dose: 50.0 mg/kg/injection, schedule: Q04DX003 (ip), vehicle: DMSO
  T/C: 96 % of control
endpoint: mean survival time, dose: 100.0 mg/kg/injection, schedule: Q04DX003 (ip), vehicle: DMSO
  T/C: 101 % of control

## O=C1Nc2ccccc2/C1=N/N=C/c1cc(Cl)cc(Cl)c1O
[6]
  T/C: 94 % of control
[7]
  T/C: 95 % of control
